Measurements reported in patent publication US6667413B2, “Uracil compounds and use thereof” (Sumitomo Chemical Company, Limited, priority 1999, dated 2003).

How the values were obtained:
Type in all cases: in vivo
[1] = system: Broadleaf signalgrass (Brachiaria platyphylla); experiment: Test Example 6: foliar treatment, herbicidal activity index; design: key: 0: no or little difference in the degree of germination or growth between the treated and the untreated tested plants at the time of examination; 10: the test plants died complete or their germination or growth was completely inhibited; conditions: foliar spray, 4 days after application, index 0 to 10
Protocol: (§1) A plastic pot (27 cm×19 cm×7 cm) was filled with soil and then seeded with Johnsongrass (Sorghum halepense), Giant foxtail (Setaria faberi), barnyardgrass (Echinochloa crus-galli), large crabgrass (Digitaria sanguinalis), Broadleaf signalgrass (Brachiaria platyphylla) and wild oat (Avena fatua). These test plants were grown in a greenhouse for 25 days. After then, each of the compounds 3-11, 4-22, B and C was formulated into an emulsifiable concentrate according to Formulation Example 2 and then diluted to the prescribed amount with water containing a spreading agent and the dilution was uniformly sprayed over the foliage of the test plants with a sprayer at a rate of 1000 liters per hectare. After the application, the test plants were grown in the greenhouse for 4 days, and the herbicidal activity was examined. (In the Table 9, the test plants are shown as follows. Johnsongrass: J, Giant foxtail: GF, Barnyardgrass: B Large crabgrass: LC, Broadleaf signalgrass: BC wild oat: W

[2] = system: wild oat (Avena fatua); experiment: as above; design: key: 0: no or little difference in the degree of germination or growth between the treated and the untreated tested plants at the time of examination; 10: the test plants died complete or their germination or growth was completely inhibited; conditions: foliar spray, 4 days after application, index 0 to 10
Protocol: as §1

[3] = system: Giant foxtail (Setaria faberi); experiment: as above; design: key: 0: no or little difference in the degree of germination or growth between the treated and the untreated tested plants at the time of examination; 10: the test plants died complete or their germination or growth was completely inhibited; conditions: foliar spray, 4 days after application, index 0 to 10
Protocol: as §1

[4] = system: barnyardgrass (Echinochloa crus-galli); experiment: as above; design: key: 0: no or little difference in the degree of germination or growth between the treated and the untreated tested plants at the time of examination; 10: the test plants died complete or their germination or growth was completely inhibited; conditions: foliar spray, 4 days after application, index 0 to 10
Protocol: as §1

[5] = system: large crabgrass (Digitaria sanguinalis); experiment: as above; design: key: 0: no or little difference in the degree of germination or growth between the treated and the untreated tested plants at the time of examination; 10: the test plants died complete or their germination or growth was completely inhibited; conditions: foliar spray, 4 days after application, index 0 to 10
Protocol: as §1

[6] = system: Johnsongrass (Sorghum halepense); experiment: as above; design: key: 0: no or little difference in the degree of germination or growth between the treated and the untreated tested plants at the time of examination; 10: the test plants died complete or their germination or growth was completely inhibited; conditions: foliar spray, 4 days after application, index 0 to 10
Protocol: as §1

[7] = system: velvetleaf (Abutilon theophrasti); experiment: Test Example 2: soil surface treatment, herbicidal activity; conditions: sprayed over the surface of the soil, 500 g/ha, 7 days after application
Description: (§2) A cylindrical plastic pot having a diameter of 10 cm and a depth of 10 cm was filled with soil and then seeded with Ivyleaf morningglory (Ipomoea hederacea), velvetleaf (Abutilon theophrasti) and barnyardgrass (Echinochloa crus-galli). Then, each of the compounds 1-1,2-1 and 3-1 was formulated into an emulsifiable concentrate according to Formulation Example 2 and then diluted to the prescribed amount with water, and the dilution was uniformly sprayed over the surface of the soil with a sprayer at a rate of 1000 liters per hectare. After the application, the test plants were grown in the greenhouse for 7 days, and the herbicidal activity of the applied composition was examined.

[8] = system: Ivyleaf morningglory (Ipomoea hederacea); experiment: as above; conditions: sprayed over the surface of the soil, 500 g/ha, 7 days after application
Description: as §2

[9] = system: barnyardgrass (Echinochloa crus-galli); experiment: as above; conditions: sprayed over the surface of the soil, 500 g/ha, 7 days after application
Description: as §2

[10] = system: blackgrass (Alopecurus myosuroides); experiment: Test Example 1: foliar treatment, herbicidal activity; conditions: foliar spray, 125 g/ha, 7 days after application
Protocol: (§3) A cylindrical plastic pot having a diameter of 10 cm and a depth of 10 cm was filled with soil and then seeded with Ivyleaf morningglory (Ipomoea hederacea), velvetleaf (Abutilon theophrasti), barnyardgrass (Echinochloa crus-galli) and blackgrass (Alopecurus myosuroides). These test plants were grown in a greenhouse for 9 days. Then, each of compounds 1-1,2-1, 3-1,3-2, 3-11 and 3-12 was formulated into an emulsifiable concentrate according to Formulation Example 2 and then diluted to the prescribed amount with water containing a spreading agent and the dilution was uniformly sprayed over the foliage of the test plants with a sprayer at a rate of 1000 liters per hectare After the application, the test plants were grown in the greenhouse for 7 days, and the herbicidal activity of the applied composition was determined.

[11] = system: velvetleaf (Abutilon theophrasti); experiment: as above; conditions: foliar spray, 125 g/ha, 7 days after application
Protocol: as §3

[12] = system: Ivyleaf morningglory (Ipomoea hederacea); experiment: as above; conditions: foliar spray, 125 g/ha, 7 days after application
Protocol: as §3

[13] = system: barnyardgrass (Echinochloa crus-galli); experiment: as above; conditions: foliar spray, 125 g/ha, 7 days after application
Protocol: as §3

[14] = system: blackgrass (Alopecurus myosuroides); experiment: Test Example 4: soil surface treatment, herbicidal activity; conditions: sprayed over the surface of the soil, 2000 g/ha, 7 days after application
Description: as §2, with “theophrasti),” for “theophrasti) and”, “crus-galli) and blackgrass (Alopecurus myosuroides).” for “crus-galli).”, “3-2,3-11, 3-12, 3-16, 3-20” for “1-1,2-1”, “3-198” for “3-1”

[15] = system: velvetleaf (Abutilon theophrasti); experiment: as above; conditions: sprayed over the surface of the soil, 2000 g/ha, 7 days after application
Description: as §2, with “theophrasti),” for “theophrasti) and”, “crus-galli) and blackgrass (Alopecurus myosuroides).” for “crus-galli).”, “3-2,3-11, 3-12, 3-16, 3-20” for “1-1,2-1”, “3-198” for “3-1”

[16] = system: Ivyleaf morningglory (Ipomoea hederacea); experiment: as above; conditions: sprayed over the surface of the soil, 2000 g/ha, 7 days after application
Description: as §2, with “theophrasti),” for “theophrasti) and”, “crus-galli) and blackgrass (Alopecurus myosuroides).” for “crus-galli).”, “3-2,3-11, 3-12, 3-16, 3-20” for “1-1,2-1”, “3-198” for “3-1”

[17] = system: barnyardgrass (Echinochloa crus-galli); experiment: as above; conditions: sprayed over the surface of the soil, 2000 g/ha, 7 days after application
Description: as §2, with “theophrasti),” for “theophrasti) and”, “crus-galli) and blackgrass (Alopecurus myosuroides).” for “crus-galli).”, “3-2,3-11, 3-12, 3-16, 3-20” for “1-1,2-1”, “3-198” for “3-1”

Row | Compound | Herbicidal activity BC ([1]; 0.33 g/ha) | Herbicidal activity BC ([1]; 1 g/ha) | Herbicidal activity BC ([1]; 3.3 g/ha) | Herbicidal activity W ([2]; 0.33 g/ha) | Herbicidal activity W ([2]; 1 g/ha) | Herbicidal activity W ([2]; 3.3 g/ha) | Herbicidal activity GF ([3]; 0.33 g/ha) | Herbicidal activity GF ([3]; 1 g/ha) | Herbicidal activity GF ([3]; 3.3 g/ha) | Herbicidal activity B ([4]; 0.33 g/ha) | Herbicidal activity B ([4]; 1 g/ha) | Herbicidal activity B ([4]; 3.3 g/ha) | Herbicidal activity LC ([5]; 0.33 g/ha) | Herbicidal activity LC ([5]; 1 g/ha) | Herbicidal activity LC ([5]; 3.3 g/ha) | Herbicidal activity J ([6]; 0.33 g/ha) | growth of blackgrass [10] | growth of velvetleaf [11] | growth of Ivyleaf morningglory [12] | growth of barnyardgrass [13] | further results
1 | COc1ccccc1Oc1cc(-n2c(=O)cc(C(F)(F)F)n(C)c2=O)c(F)cc1C#N [B, reference compound] | 2 | 6 | 8 | 2 | 5 | 7 | 3 | 5 | 7 | 2 | 6 | 7 | 3 | 7 | 8 | 2 |  |  |  |  | Herbicidal activity J ([6]; 1 g/ha): 7; Herbicidal activity J ([6]; 3.3 g/ha): 7
2 | COC(=O)c1ccccc1Oc1cc(-n2c(=O)cc(C(F)(F)F)n(C)c2=O)c(F)cc1C#N [C, reference compound] | 2 | 3 | 6 | 1 | 3 | 5 | 1 | 3 | 4 | 1 | 4 | 6 | 2 | 3 | 5 | 2 |  |  |  |  | Herbicidal activity J ([6]; 1 g/ha): 4; Herbicidal activity J ([6]; 3.3 g/ha): 6
3 | COC(=O)C(C)Oc1ccc(Oc2cc(-n3c(=O)cc(C(F)(F)F)n(C)c3=O)c(F)cc2Cl)cc1 (centres unmarked) [Compound 1-1, methyl 2-[4-{2-chloro-4-fluoro-5-[3-methyl-2,6-dioxo-4-(trifluoromethyl)-1,2,3,6-tetrahydropyrimidin-1-yl]phenoxy}phenoxy]propionate] |  |  |  |  |  |  |  |  |  |  |  |  |  |  |  |  | completely controlled | completely controlled | completely controlled | completely controlled | emergence of velvetleaf [7]: completely controlled; emergence of Ivyleaf morningglory [8]: completely controlled; emergence of barnyardgrass [9]: completely controlled
4 | COC(=O)C(C)Oc1cccc(Oc2cc(-n3c(=O)cc(C(F)(F)F)n(C)c3=O)c(F)cc2Cl)c1 (centres unmarked) [Compound 2-1, methyl 2-[3-{2-chloro-4-fluoro-5-[3-methyl-2,6-dioxo-4-(trifluoromethyl)-1,2,3,6-tetrahydropyrimidin-1-yl]phenoxy}phenoxy]propionate] |  |  |  |  |  |  |  |  |  |  |  |  |  |  |  |  | completely controlled | completely controlled | completely controlled | completely controlled | emergence of velvetleaf [7]: completely controlled; emergence of Ivyleaf morningglory [8]: completely controlled; emergence of barnyardgrass [9]: completely controlled
5 | CCOC(=O)C(C)Oc1ccccc1Oc1cc(-n2c(=O)cc(C(F)(F)F)n(C)c2=O)c(F)cc1Cl (centres unmarked) [Compound 3-2, Ethyl 2-[2-{2-chloro-4-fluoro-5-[3-methyl-2,6-dioxo-4-(trifluoromethyl)-1,2,3,6-tetrahydropyrimidin-1-yl]phenoxy}phenoxy]propionate] |  |  |  |  |  |  |  |  |  |  |  |  |  |  |  |  | completely controlled | completely controlled | completely controlled | completely controlled | emergence of blackgrass [14]: completely controlled; emergence of velvetleaf [15]: completely controlled; emergence of Ivyleaf morningglory [16]: completely controlled; emergence of barnyardgrass [17]: completely controlled
6 | COC(=O)COc1ccccc1Oc1cc(-n2c(=O)cc(C(F)(F)F)n(C)c2=O)c(F)cc1Cl [Compound 3-11, Methyl [2-{2-chloro-4-fluoro-5-[3-methyl-2,6-dioxo-4-(trifluoromethyl)-1,2,3,6-tetrahydropyrimidin-1-yl]phenoxy}phenoxy]acetate] | 8 | 9 | 10 | 8 | 10 | 10 | 8 | 9 | 9 | 7 | 8 | 10 | 8 | 9 | 10 | 8 | completely controlled | completely controlled | completely controlled | completely controlled | Herbicidal activity J ([6]; 1 g/ha): 9; Herbicidal activity J ([6]; 3.3 g/ha): 10; emergence of blackgrass [14]: completely controlled; emergence of velvetleaf [15]: completely controlled; emergence of Ivyleaf morningglory [16]: completely controlled; emergence of barnyardgrass [17]: completely controlled
7 | CCOC(=O)COc1ccccc1Oc1cc(-n2c(=O)cc(C(F)(F)F)n(C)c2=O)c(F)cc1Cl [Compound 3-12, Ethyl [2-{2-chloro-4-fluoro-5-[3-methyl-2,6-dioxo-4-(trifluoromethyl)-1,2,3,6-tetrahydropyrimidin-1-yl]phenoxy}phenoxy]acetate] |  |  |  |  |  |  |  |  |  |  |  |  |  |  |  |  | completely controlled | completely controlled | completely controlled | completely controlled | emergence of blackgrass [14]: completely controlled; emergence of velvetleaf [15]: completely controlled; emergence of Ivyleaf morningglory [16]: completely controlled; emergence of barnyardgrass [17]: completely controlled
8 | COC(=O)COc1ccccc1Oc1cc(-n2c(=O)cc(C(F)(F)F)n(C)c2=O)c(F)cc1C#N [Compound 4-22] | 8 | 8 | 9 | 8 | 9 | 10 | 7 | 8 | 10 | 8 | 9 | 9 | 9 | 9 | 9 | 8 |  |  |  |  | Herbicidal activity J ([6]; 1 g/ha): 8; Herbicidal activity J ([6]; 3.3 g/ha): 9
